{"source": "patent US7611832B2", "about": "“Human G protein-coupled receptor and modulators thereof for the treatment of ischemic heart disease and congestive heart failure” (Arena Pharmaceuticals, Inc., priority 2002, dated 2009)", "key": {"[1]": {"tested_on": "RUP41 transcript in neonatal rat ventricular myocytes (NRVMs)", "assay": "RT-PCR of RUP41 transcript in NRVMs treated with hypertrophic agents", "assay_type": "cell-based", "conditions": "24 hours after addition to media; phenylephrine 100 μM, newborn calf serum 10%", "protocol": "Total RNA isolated from NRVMs as described above was used as a template for generation of reverse transcribed DNA (RT-DNA) using the RT for PCR kit (Becton Dickenson) according to manufacturers instructions. RUP41 expression was detected in RT-DNA samples by PCR. PCR conditions were 96° C. for 2 min, followed by 30 cycles of 96° C. for 30 sec, 55° C. for 30 sec, and 72° C. for 2 min, followed by 72° C. for 10 min. 20 μl of the reaction was loaded onto 1.5% agarose gel to analyze the RT-PCR products."}, "RUP41 mRNA in NRVMs": {"tested_on": "RUP41 mRNA in NRVMs", "assay": "Northern blot of RUP41 mRNA in NRVMs treated with hypertrophic agents", "conditions": "24 hour treatment; PE 100 μM, PMA 100 nM, PGF2α 1 μM, NCS 10%"}}, "data": [{"compound": "CNC[C@H](O)c1cccc(O)c1", "note": "[phenylephrine]", "values": [{"measurement": "RUP41 transcript levels (RT-PCR)", "setting": "[1]", "value": "drop dramatically"}, {"measurement": "RUP41 mRNA expression (Northern blot)", "setting": "RUP41 mRNA in NRVMs", "value": "decreased level"}]}, {"compound": "CCCCCCCCCCCCCC(=O)O[C@@H]1[C@@H](C)[C@@]2(O)[C@@H](C=C(CO)C[C@]3(O)C(=O)C(C)=C[C@@H]23)[C@@H]2C(C)(C)[C@]12OC(C)=O", "note": "[phorbol 12-myristate 13-acetate]", "values": [{"measurement": "RUP41 mRNA expression (Northern blot)", "setting": "RUP41 mRNA in NRVMs", "value": "decreased level"}]}, {"compound": "prostaglandin F2α", "values": [{"measurement": "RUP41 mRNA expression (Northern blot)", "setting": "RUP41 mRNA in NRVMs", "value": "decreased level"}]}]}
